According to patent US20260234173A1, “STRUCTURED MOLECULAR VECTORS FOR ANTI-INFLAMMATORY COMPOUNDS AND USES THEREOF” (Universite Claude Bernard Lyon 1, priority 2019, published 2026):
Each block holds one compound with its values, some of them ahead of it.

Legend:
[1] = system: hippocampal LTP in rats subjected to Pilo-SE; experiment: Hippocampal LTP in slices from Pilo-SE rats treated in vivo (i.p. or per os); design: species or system rat
Protocol: (§1) In this experiment we used male Sprague-Dawley rats (ENVIGO, Netherlands). Pups were received at 14 day-old (postnatal day 14 (P14)) with their foster mother, and were maintained in groups of 10 in plastic cages (405 mm×255 mm×197 mm) with free access to food and water. All animal procedures are in accordance with the guidelines of the Animal Care and Use Committee of the University Claude Bernard Lyon 1.
(§2) All injected solutions were prepared in sterile saline (0.9% w/v). At weaning (postnatal day 20 (P20)), Sprague-Dawley male rat pups were first injected i.p. with lithium chloride (127 mg/Kg; Sigma-Aldrich), to decrease the dose of pilocarpine needed to trigger Status Epilepticus (SE). Scopolamine methylnitrate (1 mg/Kg; Sigma-Aldrich) was injected s.c. 18 h later, to alleviate peripheral cholinergic adverse side effects. Pilocarpine hydrochloride (25 mg/Kg; Sigma-Aldrich) was injected i.p. 30 min later, to induce SE. […] The rats were placed on a heated pad, under continuous observation, until they recovered from sedation. Following recovery, the rats were returned to the nursing mother until P23. Control rats only received saline injections. All rats were then housed in groups of 10 and weighed daily, during the 5 following days, to control for food intake, and then twice weekly until the end of experiment (three weeks post SE).
(§3) At P28-38, Sprague-Dawley rats were anesthetized with isoflurane, the forebrain was removed and placed in ice cold standard artificial cerebrospinal fluid (ACSF), consisting of (in mM): 124 NaCl, 5 KCl, 1.25 Na2HPO4, 2 MgSO4, 2 CaCl2), 26 NaHCO3, supplemented with 10 D-glucose, and bubbled with 95% O2 and 5% CO2. Hippocampal transverse slices were cut into 350 μm thick sections, using a vibratome (Leica VT1000S), and incubated in ACSF at room temperature for at least 1 h, before the transfer to the recording chamber. The ACSF used for perfusion was supplemented with picrotoxin (100 μM; Sigma-Aldrich), to block GABA-A receptors and therefore to facilitate the induction of NMDA receptors-dependent Long-Term Potentiation (LTP). CA1 pyramidal cells were visualized with a Zeiss Axioskop 2, equipped with a X40 objective, using infrared video microscopy and differential interference contrast optics. Whole-cell recordings from pyramidal neurons in the CA1 layer were obtained with patch electrodes, which were filled with a solution containing (in mM): 120 potassium gluconate, 20 KCl, 0.2 EGTA, 2 MgCl2, 10 HEPES, 4 Na2ATP, 0.3 Tris-GTP and 14 mM phosphocreatine (pH 7.3, adjusted with KOH). Drugs were applied in the bath of the hippocampal slices. Electrode resistances ranged from 3-5 MΩ. Series resistance was continually monitored, and experiments were discarded if it changed by >20%.
Capillary glass pipettes filled with ACSF and connected to an Iso-Flex stimulus isolation unit (A.M.P.I.) were placed in stratum radiatum, to evoke excitatory postsynaptic potentials (EPSPs) in CA1 pyramidal neurons. Cells were held at −70 mV to record EPSPs, and the stimulation strength was set to evoke EPSPs between 5-8 mV. LTP was induced by the theta burst pairing (TBP) protocol, which consisted of EPSPs paired with single back-propagating action potentials (b-APs), timed so that the b-AP (~15 ms delay) occurred at the peak of the EPSPs, as measured in the soma. A single burst contained five pairs delivered at 100 Hz and ten bursts were delivered at 5 Hz per sweep. Three sweeps were delivered at 10 s intervals for a total of 30 bursts (150 b-AP-EPSP pairs). The b-APs were elicited by direct somatic current injection (1 ms, 1-2 nA). This induction protocol was always applied within 20 min of achieving whole-cell configuration, to avoid “wash-out” of LTP.

[2] = system: CA1 pyramidal neurons in hippocampal slices from rats subjected to Pilo-SE; experiment: Hippocampal LTP in slices from Pilo-SE rats, compound perfused in the bath (ex vivo); assay type: cell-based, rat; conditions: slices 1-2 weeks post Pilo-SE
Protocol: as §1, §2, §3
Capillary glass pipettes filled with ACSF and connected to an Iso-Flex stimulus isolation unit (A.M.P.I.) were placed in stratum radiatum, to evoke excitatory postsynaptic potentials (EPSPs) in CA1 pyramidal neurons. Cells were held at −70 mV to record EPSPs, and the stimulation strength was set to evoke EPSPs between 5-8 mV. LTP was induced by the theta burst pairing (TBP) protocol, which consisted of EPSPs paired with single back-propagating action potentials (b-APs), timed so that the b-AP (~15 ms delay) occurred at the peak of the EPSPs, as measured in the soma. A single burst contained five pairs delivered at 100 Hz and ten bursts were delivered at 5 Hz per sweep. Three sweeps were delivered at 10 s intervals for a total of 30 bursts (150 b-AP-EPSP pairs). […]

[3] = system: Pilo-SE-induced inflammation in the hippocampus; experiment: Resolution of inflammation in hippocampus following pilocarpine-induced status epilepticus (Pilo-SE); assay type: in vivo, rat; conditions: 2 mg/kg i.p. after 2 h of SE; hippocampus 9 h post-SE; 42-day-old rats
Protocol: Male Sprague-Dawley rats (Envigo, The Netherlands) were subjected to Pilo-SE at 42 days of age (185 g). SE was triggered by pilocarpine hydrochlorate (350 mg/kg, i.p.), 30 min after the administration of scopolamine methylnitrate (1 mg/kg, s.c.), used to reduce peripheral side effects of pilocarpine. After 2 h of continuous SE, rats were administered with diazepam (10 mg/kg, i.p.) to stop SE, and then immediately treated with SYN (2 mg/kg, i.p.), SYN-Pn (2 mg/kg, i.p.) in 300 μL of NaCl. Non-treated rats subjected to Pilo-SE were injected with 300 μL of NaCl (i.p.) instead of SYN or SYN-Pn. All rats received a second administration of diazepam (5 mg/kg, s.c.), 1 h after the first one, and sacrificed 9 h post-SE. The brains were collected, the hippocampus microdissected on ice, the RNA extracted and RT-qPCR performed as described above using the primer pairs shown in Table 1. The time at which rats were sacrificed was chosen based on our preliminary experiments that allowed us to determine that the peak of brain inflammation was observed 7-12 hours after the onset of SE.

[4] = system: epileptic rats (post Pilo-SE); experiment: Morris water maze (MWM) spatial learning in epileptic rats; assay type: in vivo, rat; conditions: epileptic rats injected during the first week post-SE, tested 5 weeks post-SE, versus saline
Protocol: All injected solutions were prepared in sterile saline (0.9% w/v). At weaning (postnatal day 20 (P20)), Sprague-Dawley male rat pups were first injected i.p. with lithium chloride (127 mg/Kg; Sigma-Aldrich), to decrease the dose of pilocarpine needed to trigger Status Epilepticus (SE). Scopolamine methylnitrate (1 mg/Kg; Sigma-Aldrich) was injected s.c. 18 h later, to alleviate peripheral cholinergic adverse side effects. Pilocarpine hydrochloride (25 mg/Kg; Sigma-Aldrich) was injected i.p. 30 min later, to induce SE. After 30 min of continuous behavioral SE, diazepam (Valium®, Roche) was injected i.p. at 10 mg/Kg, to promote survival and initiate cessation of behavioral seizures, that completely stopped after a second s.c. injection of diazepam, given 90 min later at the dose of 5 mg/Kg. The rats were placed on a heated pad, under continuous observation, until they recovered from sedation. Following recovery, the rats were returned to the nursing mother until P23. Control rats only received saline injections. […]
Spatial learning ability was measured at 5 weeks post-SE by the Morris water maze (MWM). […]
The statistical analyses were performed using SigmaPlot software version 12. […] For MWM test, data were analyzed by two-way repeated measures ANOVA followed by Fisher LSD post hoc tests to compare differences between groups at several time points.

[5] = system: LPS-induced neuroinflammation (hippocampus and neocortex); experiment: LPS-induced neuroinflammation in vivo in rats (RT-qPCR, Neuroinflammation Index); design: species or system rat; conditions: 6 h post-LPS
[6] = system: NR8383 cells; conditions: LPS 100 ng/mL; compound 10, 100, 500, 1,000 nM within <2 min after LPS; 5 hours
Protocol: NR8383 cells were seeded at 53,000 cells/cm^2 in T75 flasks, the medium consisted in Ham's F12K medium completed with 1% pen/strep, and 15% fetal bovine serum. When they reached confluence, they were treated with LPS (Sigma, ref 055: B55) at the concentration of 100 ng/mL, and, within less than 2 min after, with one of the following condition: DECA-EA-Pn at 10, 100, 500 or 1,000 nM, or EPA-EA-Pn at 10, 100, 500 or 1,000 ng/mL. Cells were harvested 5 hours later, and the level of IL-6 mRNA was measured by RT-qPCR as in B.2.1.4, with primers listed in table 1.

[7] = system: SE-induced neuroinflammation (hippocampus and ventral limbic region); experiment: Neuroinflammatory response induced by status epilepticus in rats, per os SSL-X1; assay type: in vivo, rat; conditions: 100 mg/Kg per os 1 h after onset of SE; hippocampus and ventral limbic region 24 h after SE; 21-day-old rats
Description: In these experiments, 21-day-old Sprague Dawley rats (ENVIGO, The NETHERLAND) were subjected to pilocarpine-induced status epilepticus (SE) as described below in details (§ B.3). Three groups of rats were constituted: (i) CTRL-NaCl, i.e. control rats that just received NaCl each time a treatment was given in the other groups of rats; (ii) SE-NaCl, i.e. rats that were subjected to SE and that received NaCl per os instead of SSL-X1; (iii) SE-SSL-X1, i.e. rats that were subjected to SE and that were administered with SSL-X1 vector (100 mg/Kg) per os 1 h after the onset of SE. The vectors were dissolved in 100 μL of NaCl. Due to their hydrophobic nature, the preparation was emulsified until complete dissolution of the lipid vector. Twenty-four hours later, rats were sacrificed using a lethal injection of pentobarbital (250 mg/Kg; i.p.) and brain tissues, i.e. the hippocampus (HI) and the ventral limbic region (VLR, which includes the amygdala, the piriform and the insular agranular cortices) were collected and processed as mentioned above (§ B.2.2). Analysis of the expression level of the key markers of neuroinflammation was performed by RT-qPCR as described above using the primer pairs shown in Table 1. […]

[8] = Metabolic fate of SSL-X1 in the digestive tract of rats after per os administration; assay type: in vivo; conditions: 227 μg lipid phosphorus per os, sacrificed 5, 8 and 36 hours after administration
[9] = Hydrosolubility compared with synaptamide; assay type: physicochemical
[10] = 2 mg/kg i.p., 1 h after cessation of SE then daily
[11] = 5 mg/kg i.p., 1 h after cessation of SE then daily

Compound: CC/C=C\C/C=C\C/C=C\C/C=C\C/C=C\C/C=C\CCC(=O)NCCO [synaptamide, N-Docosahexaenoylethanolamine, reference compound]
LTP magnitude (EPSP amplitude, % of baseline) [1, 10]: 189.7±11.4% | LTP magnitude (EPSP amplitude, % of baseline) [1, 11]: 151.54±7.15% | LTP magnitude (EPSP amplitude, % of baseline) ([1]; 10 mg/kg i.p., 1 h after cessation of SE then daily): 195.2±8% | LTP magnitude (EPSP amplitude, % of baseline) ([2]; bath application 100 nM): 166.8±12.2% | LTP magnitude (EPSP amplitude, % of baseline) ([2]; bath application 400 nM): 164.2±20.5% | induction of IL1β mRNA in response to Pilo-SE [3]: reduced | spatial learning in MWM (latency to find the platform) [4]: significantly increased spatial learning acquisition | LPS-mediated induction of transcripts encoding neuroinflammatory markers ([5]; 2 mg/Kg synaptamide equivalent i.p. one minute after LPS 1 mg/Kg, 21-day-old rats): partially prevent | reduction of the Neuroinflammatory Index measured both in the hippocampus and the neocortex ([5]; 2 mg/Kg synaptamide equivalent i.p. one minute after LPS): ~ 50%

Compound: CC/C=C\C/C=C\C/C=C\C/C=C\C/C=C\C/C=C\CCC(=O)O [DHA, docosahexaenoic acid, reference compound]
LTP magnitude (EPSP amplitude, % of baseline) ([1]; per os, dose equivalent to 100 mg/kg of Synaptamide phosphonate): 129.5±10.2%

Compound: eicosapentaenoic acid ethanolamine phosphonate [EPA-EA-Pn]
LTP magnitude (EPSP amplitude, % of baseline) [1, 11]: 154.4±12.1% | induction of IL-6 mRNA levels [6]: significantly reduced

Compound: CCC=CCC=CCC=CCC=CCC=CCC=CCCC(=O)NC(COP(=O)(O)CCN)C(O)C=CCCCCCCCCCCCCC (stereo not shown) [SSL-X1]
induction of MCP1, IL6 and COX-2 transcripts after SE [7]: partially prevented | distribution of SSL-X1 along the intestinal tract [8]: able to reach the colon

hydrosolubility relative to synaptamide [9]: more hydrosoluble than synaptamide
Compound: CC/C=C\C/C=C\C/C=C\C/C=C\C/C=C\C/C=C\CCC(=O)NCCOP(=O)(O)O [synaptamide phosphate]
LTP magnitude (EPSP amplitude, % of baseline) [1, 10]: 168.9±7.1% | LTP magnitude (EPSP amplitude, % of baseline) [1, 11]: 162.3±10.8% | LTP magnitude (EPSP amplitude, % of baseline) ([2]; bath application 100 nM): 144.5±9.39%

Compound: CCCCCCCCCC(=O)O.NCCO.O=[PH](O)O [DECA-EA-Pn, decanoic acid ethanolamine phosphonate]
LTP magnitude (EPSP amplitude, % of baseline) [1, 11]: 130.3±7% | induction of IL-6 mRNA levels [6]: significantly reduced

Compound: CCC=CCC=CCC=CCC=CCC=CCC=CCCC(=O)NCCP(=O)(O)OCC(N)C(O)C=CCCCCCCCCCCCCC (stereo not shown) [SSLX2]
LTP magnitude (EPSP amplitude, % of baseline) ([1]; per os, dose equivalent to 10 mg/kg of Synaptamide phosphonate): 135.6±9.9% | LTP magnitude (EPSP amplitude, % of baseline) ([1]; per os, dose equivalent to 30 mg/kg of Synaptamide phosphonate): 172.9±6.5%
